Data reported in US20140200265A1, “USAGE OF 1,3,5,7-TETRAHYDROXY-8-ISOPRENYLXANTHONE FOR TREATING INFLAMMATION” (Hong Kong Baptist University, priority 2013, published 2014).
Converted amounts (≈) assume the structure as drawn. Read-outs that look alike come from different tables or passages of the source.

What was measured:
[1] = test system: NO production in LPS and IFN-γ stimulated RAW264.7 cells; assay: Assay for NO accumulation in stimulated macrophages (Griess reaction); assay type: cell-based; conditions: Mus musculus, 24 hours; for IC50: 10 U/ml IFN-γ and 100 ng/ml LPS
Description: RAW264.7 were maintained in RPMI 1640 medium supplemented with 10% FBS at 37° C. in a humidified 5% CO2 atmosphere. Cells were plated in a 96-well plate (5×10^3 cells/well) and allowed to attach overnight. The cells were then stimulated with 10 U/ml of IFN-γ and 100 ng/ml of LPS for 24 hours in the presence or absence of tested compound with final concentration of 50, 25, 12.5, 6.25, 3.125 μg/mL, and Indometacin as positive drug.
iNOS function was analyzed with Griess reaction and was applied for measurement of nitrite concentration in the culture supernatant. Briefly, 100 μl/well of sample was incubated with equal volume of Griess solution at room temperature for 10 min. The absorbance was evaluated at 540 nm using a calibration curve with a sodium nitrite standard. Percent inhibition was expressed as [1-(NO level of sample/NO level of vehicle treated-control)]×100 (Table 1).

[2] = test system: miR-155 expression in stimulated RAW264.7 cells; assay: Assay for microRNA155 expression in stimulated macrophages (qRT-PCR); assay type: cell-based; conditions: RAW264.7 cells, 1, 2, 4 μg/mL, 24 hours, FIG. 2
Description: RAW264.7 cells were pretreated with tested sample (1,2,4 μg/mL,) for 1 hour and then stimulated for 24 hours. The cells were harvested. Total RNA was extracted and RNA concentrations were determined. Quantitative RT-PCR analyses on miRNAs were performed using TaqMan miR NA assays (Applied Biosystems, USA). 50 ng of RNA per reaction was subjected for RT reaction. RT reaction was carried out using the following conditions: 16° C. for 30 minutes, 42° C. for 30 minutes, and 85° C. for 5 minutes. Expression levels of the miRNAs were determined by qRT-PCR using TaqMan Expression Assays (Applied Biosystems, USA). RNU6 endogenous control was used for normalization, and expression levels were presented as ΔCt with standard deviation (FIG. 2).
As miR-155 plays an important role in the innate immune response or inflammation, the effect of 1,3,5,7-tetrahydroxy-8-isoprenylxanthone on the expression of miR-155 by qRT-PCR was evaluated. In FIG. 2, the cells were stimulated with 100 ng/ml of LPS and 10 U/ml of IFN-γ only or LPS plus different concentrations (1,2,4 μg/mL) of sample for 24 hours. Total RNA was isolated and the expression of miRNA-155 was determined by qRT-PCR. […] RNU6B was used here as an endogenous control. The data represent the mean±SD of triplicate experiments. **p<0.01 compared with the LPS plus IFN-γ.

[3] = test system: Candida albicans secreted aspartic proteases (SAP); conditions: Planta Med. 2002; 68(1):49-54; cited from earlier work

Row | Compound | IC50 ([1]; read-out: The inhibitory effect on NO accumulation, IC50) | IC50 ([1]; read-out: The inhibitory effect on NO accumulation, IC50(μg/mL)) | Effect on LPS plus IFN-γ-induced miR-155 expression [2] | IC50 against Candida albicans secreted aspartic proteases (SAP) [3] | inhibition at 1 µg/mL ([1]; 1 μg/mL, IFN-γ and LPS, read-out: The inhibitory effect on NO accumulation (percent inhibition))
1 | CC(C)=CCc1c(O)cc(O)c2oc3cc(O)cc(O)c3c(=O)c12 [1,3,5,7-tetrahydroxy-8-isoprenylxanthone] | 5.06 µM | 1.66 µg/mL | reduced LPS plus IFN-γ-induced miR-155 expression in a dose-dependent manner | 25 µg/mL (≈ 76.1 µM) | 
2 | COc1ccc2c(c1)c(CC(=O)O)c(C)n2C(=O)c1ccc(Cl)cc1 [Indometacin, reference compound] |  |  |  |  | 46.5%
